Results as given in patent publication US20040043462A1, “Chamber for in vivo screening of angiogenesis and tumor growth modulating compounds” (priority 2003, published 2004).
Entries after “also recorded” stand apart in the source; their conditions may differ.

Legend:
[1] = system: wound healing response (granulation tissue, neovascularization) in F-ZC; test: Fibrin Z-chamber (F-ZC) wound healing assay, systemic SU5416 treatment; assay type: in vivo, Fischer 344 rats; settings: SUGEN 5416 20 mg/kg, control about 45, p=0.0009
TGF β1 = TGF β1 ELISA on F-ZC tissue lysates; assay type: in vivo, Fischer 344 rats
Protocol: (§1) Schedule and Dose of Drug Administration.
TGF β1 ELISA. Active TGF β1 ELISA was carried out in triplicate using DUOSET® kit (DY240, Genzyme Corporation, Cambridge, Mass.) as described previously (Danielpour, D., J Immunol Methods (1993) 158(1):17-25) with tissue lysates from chamber contents generated as detailed above. Latent form of […] was converted to immunoreactive form to ascertain total […] content. The data is shown as pg per mg of protein in the tissues.

[2] = system: wound healing response (granulation tissue, neovascularization) in F-ZC; test: Fibrin Z-chamber (F-ZC) wound healing assay, systemic SU5416 treatment; assay type: in vivo, Fischer 344 rats; settings: for residual D-dimer retention: SU5416 vs control (FIG. 16); for body weight loss: SU5416 20 mg/kg, F-ZC implantation, 10-12 days, vs control (FIG. 13)
Protocol: as §1
Fibrin Z-Chambers (F-ZC): In accordance with the present invention, F-ZC were employed in a fibrin gel based in vivo assay. In F-ZC, fibrinogen and thrombin are added to a dual porous chamber through a port and chambers are then implanted in the subcutaneous tissue of the rats and harvested at day 12 post-implantation to assess the wound healing response generated due to presence of fibrin. These chambers are constructed from customized PLEXIGLAS® rings with internal diameter of 10 mm and have an access port drilled on the side. The two open surfaces are covered by nylon mesh (pore size 180 microns, # NY8H04700, Millipore, Mass.) glued to the rings. Fibrinogen (# 341578, CalBiochem, La Jolla, Calif.) was prepared in DMEM (# 11995-065, Gibco BRL, Rockville, Md.) at a concentration of 4 mg/ml and was converted to fibrin by addition of thrombin (#605160, CalBiochem, La Jolla, Calif.) inside the chambers.
Fischer 344 rats were anesthetized, hair removed using the clippers and the surface was surgically prepared. Two small midline skin incisions were made in the dorsal region about 4 cm apart. Fascia was blunt dissected and small pockets were created on both sides along the midline incision. Thus, four F-ZCs were implanted per animal.
Quantitation of Immunohistochemistry. Microvessel density (MVD) was calculated as described by Weidner (Weidner, N., et al., J Natl Cancer Inst (1992) 84(24):1875-87). Briefly, three hot spots or areas with highest visible blood vessels density (marked by the vessel marker) per sample section were selected and number of blood vessels counted at a high power field (400×). The data was then pooled for the control and treated tissues to arrive at the mean values for each group. Collagen was semi-quantitatively estimated on a scale of 0-4. Zero was described as negligible staining, 1 as weak, 2 as moderate, 3 as strong and 4 as complete staining as observed in dermis.
D-Dimer Measurements. The MINIQUANT™ D-Dimer (Cat # 1447, Biopool AB of Umea, Sweden) assay was used to measure residual D-Dimer in the chamber content lysates generated as detailed above. […] The measurements were carried out in duplicate. Each measurement is from pooled tissue for the treatment and control groups.

[3] = system: tumor cells embedded in fibrin gel (T-ZC); test: Tumor cell-containing chambers (T-ZC) implanted in animals, systemic SUGEN 5416 treatment; assay type: in vivo
Protocol: A tumor cell chamber, or tumor Z-chamber (T-ZC) is prepared by adding tumor cells to the fibrinogen solution before adding the solution to the chamber. The tumor cells are embedded in fibrin gel. Implantation is accomplished by making two 2 cm long incisions on the backs of the animals, followed by making blunt dissections on both sides to establish a pocket in the subcutaneous space. The chambers are inserted into these pockets. Clips are used to close the incision in rats and sutures are used for mice. A topical antibiotic, such as that sold under the registered trademark NEOSPORIN® by Glaxo-Wellcome, Inc., is applied over the incision. To harvest the chambers, a long incision is made on the backs of the animals. The surrounding fascia is observed and noted. The chambers are pushed from outside the animal and pulled out. Pictures are taken at this stage to observe differences, if any, between tissue within and encompassing the chamber and the surrounding tissue. The mesh and issue agglomerated thereon are cut from the chamber with scalpel (preferably a #11 blade) and then processed in accordance with a desired analysis approach.

[4] = system: wound healing response (granulation tissue) in fibrin-containing chambers; test: F-ZC wound healing response with chamber administration of angiostatin; assay type: in vivo
Protocol: FIGS. 20A and 20B are photographs showing gross examination of fibrin-containing chambers of the present invention in which angiostatin was administered in laboratory animals in accordance with techniques described herein above for Laboratory Examples 1-9. […] Fibrin is inherently pale yellow in color and lack of blood vessels in angiostatin treated chambers results in the paler appearance of the chambers.
FIGS. 20C and 20D are photomicrographs showing depth (represented by line with arrowheads at each end) of granulation tissue developed inside fibrin-containing chambers of the present invention. Depth granulation was used as a measure for the healing response.
Scale=depth of granulation tissue (×10 microns).

[5] = Table 1, SU5416 vs control, n = 10

Cc1cc(C)c(C=C2C(=O)Nc3ccccc32)[nH]1 [SU5416, 3-(2,4-Dimethylpyrrol-5-yl)methylene-2-indolinone]
average MVD at 200× magnification [1]: about 30
reduction in active TGF β1 level (TGF β1; F-ZC tissue, SU5416 20 mg/kg IP vs controls): 90%
total TGF β1 (TGF β1; F-ZC tissue, SU5416 treated vs controls): increased
Active TGF β1 (TGF β1; Table 1, F-ZC tissue lysates, SU5416, control 1.45 ± 0.1): 0.11 ± 0.05 pg per mg of protein
Latent TGF β1 (TGF β1; Table 1, F-ZC tissue lysates, SU5416, control 7.72 ± 0.5): 11.85 ± 0.8 pg per mg of protein
Difference, Active TGF β1 (TGF β1; [5]): 93%, n = 10
Difference, Latent TGF β1 (TGF β1; [5]): 35%, n = 10
gross appearance of chambers (influx of blood vessels) ([2]; F-ZC at harvest day 12, SU5416 vs controls (FIGS. 17A, 17B)): distinctly paler color; also recorded: paler in color
collagen deposition (MT stain) ([2]; F-ZC granulation tissue, SU5416 20 mg/kg IP, p=0.0006, 20 mg/kg): distinctly decreased collagen deposition; also recorded: collagen was decreased
reduction in microvessel density vs controls ([2]; F-ZC, SU5416 20 mg/kg IP, day 12, p=0.0009): 10%
reduction of granulation tissue (depth) vs controls ([2]; F-ZC, SU5416 20 mg/kg IP, day 12, p=0.0076): 45%
granulation tissue formation ([2]; F-ZC, SU5416 20 mg/kg vs control, listed as SUGEN 5416): inhibited granulation tissue formation
decrease in collagen deposition (semi-quantitative, MT) ([2]; F-ZC, SU5416 treated vs controls): > 70%
residual D-dimer retention ([2]; F-ZC): remained elevated
residual D-dimer retention ([2]; F-ZC, listed as SUGEN 5416): increase in residual D-dimer retention
neovascularization ([2]; F-ZC, SUGEN 5416 20 mg/kg vs control): inhibited neovascularization
average depth of granulation tissue ([2]; F-ZC, SUGEN 5416 20 mg/kg, magnification 10×, control about 45 mm, p=0.0076): about 25 mm
D-dimer levels in chambers ([2]; F-ZC, SUGEN 5416, after 10-12 days of implantation, control about 4,000 ng/ml): about 13,000 ng/ml
body weight loss ([2]; 20 mg/kg): maintained their pre-treatment weights
body weight loss ([2]; listed as SUGEN 5416): no significant body weight loss
D-Dimer ([2]; Table 1, F-ZC tissue lysates (pooled), SU5416, control 4100 ± 100): 185 ± 20 ng/mL
Granulation ([2]; Table 1, F-ZC, SU5416 20 mg/kg IP, day 12, ± standard error of mean, control 466.7 ± 51.9): 256.8 ± 42.9
Collagen ([2]; Table 1, F-ZC, SU5416, semi-quantitative scale of 0-4, ± SEM, control 1.75 ± 0.25): 0.5 ± 0.18
Microvessel ([2]; Table 1, F-ZC, SU5416, ± SEM, control 28.17 ± 0.42): 26.25 ± 0.53
Difference, Microvessel ([2]; Table 1, SU5416 vs control): 10%, p = 0.006,
Difference, D-Dimer [2, 5]: 96%, n = 10
Difference, Collagen ([2]; Table 1, SU5416 vs control, p = 0.001): 72%, p = 0.001,
Difference, Granulation ([2]; Table 1, SU5416 vs control, p = 0.006): 45%, p = 0.006,
body weight loss ([3]; SUGEN 5416 20 mg/kg systemic, T-ZC implantation, vs control animals (FIG. 9), 20 mg/kg): no significant body weight loss; also recorded: no significant body weight lost
tumor growth delay ([3]; SUGEN 5416 20 mg/kg systemic, T-ZC, p<0.0001 (FIG. 10)): significant tumor growth delay
increase in tumor volume ([3]; SUGEN 5416 20 mg/kg systemic, T-ZC, control about 90% (FIG. 10)): 40%
microvessel density (MVD) change ([3]; T-ZC, SUGEN 5416 20 mg/kg, p=0.11 (FIG. 11)): did not change
MVD per high power (200×) focal (HPF) ([3]; T-ZC, SUGEN 5416 20 mg/kg, control about 15 (FIG. 11)): about 13
residual D-dimer retention ([3]; T-ZC, SUGEN 5416 systemic vs control (FIG. 12)): more residual D-dimer retention

angiostatin
healing response ([4]; 1 μM angiostatin in chamber): reduction in healing response
gross appearance of chambers (influx of blood vessels) ([4]; 1 μM angiostatin in chamber vs controls (FIGS. 20A, 20B)): paler in color
granulation tissue formation (depth) ([4]; 1 μM angiostatin in chamber vs controls (FIGS. 20C, 20D, 21)): granulation tissue in controls (FIG. 20C) is distinctly more than angiostatin treated chambers; also recorded: inhibited granulation tissue formation
